According to patent US10899699B2, “Vinylogous phenethylamines as neurotransmitter releasers” (RESEARCH TRIANGLE INSTITUTE, priority 2016, dated 2021):
Where two headings read alike, the source gives them in different places.

Columns and labels:
cortical 5-HT = details: high doses; cited from earlier work
5-HT2C = molecular target: T1, 5-HT2C (Homo sapiens, UniProt P28335); experiment: 5-HT2C calcium mobilization assay in HEK293 cells (agonist activity); format: cell-based
T1 construct: expressed in transfected cells
T1 sequence (P28335 33-458): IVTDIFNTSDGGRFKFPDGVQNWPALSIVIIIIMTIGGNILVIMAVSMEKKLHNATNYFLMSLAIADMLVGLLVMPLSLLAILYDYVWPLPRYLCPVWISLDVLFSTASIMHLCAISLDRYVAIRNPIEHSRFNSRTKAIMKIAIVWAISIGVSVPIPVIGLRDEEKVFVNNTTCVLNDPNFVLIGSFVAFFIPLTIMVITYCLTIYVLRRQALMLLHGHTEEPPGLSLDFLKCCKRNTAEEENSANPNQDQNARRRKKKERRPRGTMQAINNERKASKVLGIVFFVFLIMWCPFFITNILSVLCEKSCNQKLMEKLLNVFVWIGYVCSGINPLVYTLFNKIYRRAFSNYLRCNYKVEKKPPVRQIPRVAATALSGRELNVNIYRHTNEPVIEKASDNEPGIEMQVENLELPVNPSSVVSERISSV
Description: (§1) BAT activity was measured using synaptosomes prepared from rat brain homogenates according to the protocol developed by Rothman and co-workers (Rothman, et al., Eur. J. Pharmacol. 2002, 447(1), 51). Compounds were first screened in uptake inhibition and release assays to determine the exact mode of drug action. Compounds active in both assays are releasers while compounds active only in the uptake inhibition assay are uptake inhibitors. Active compounds were then fully characterized by running 8-point concentration response curves in the assay corresponding to their mechanism of action. Substrate reversal experiments were conducted to validate substrate activity. The analogs were also tested for agonist activity at the serotonin-2 receptor subtypes (5-HT2A, 5-HT2B, 5-HT2C) using in vitro calcium mobilization assays in transfected HEK293 cells as previously described. These receptors are associated with the pharmacology of abused drugs, as 5-HT2A agonists are thought to be hallucinogenic while […] are associated with valvular heart disease and pulmonary hypertension; activity at these receptors would be considered off-target liabilities. On the other hand, agonists at 5-HT2C may be beneficial as potential pharmacotherapies for drug abuse and appetite suppression.
(§2) HEK293 cells stably expressing the human 5-HT2A receptor were used. The day before the assay, cells were plated into 96-well black-walled assay plates at 40,000 cells/well in DMEM-HG supplemented with 10% fetal bovine serum, 100 units of penicillin and streptomycin, and 15 mM HEPES. The cells were incubated overnight at 37° C., 5% CO2. Prior to the assay, Calcium 5 dye (Molecular Devices) was reconstituted according to the manufacturer instructions. The reconstituted dye was diluted 1:40 in pre-warmed (37° C.) assay buffer (1×HBSS, 20 mM HEPES, 2.5 mM probenecid, pH 7.4 at 37° C.). Growth medium was removed and the cells were gently washed with 100 μL of pre-warmed (37° C.) assay buffer. The cells were incubated for 45 minutes at 37° C., 5% CO2 in 200 μL of the diluted Calcium 5 dye. Serial dilutions of the test compounds were prepared in 1% DMSO/assay buffer, aliquoted into 96-well polypropylene plates, and warmed to 37° C. After the dye-loading incubation period, the cells were pre-treated with 25 μL of 9% DMSO/assay buffer and incubated for 15 min at 37° C. After the pre-treatment incubation period, the plate was read with a FlexStation® II (Molecular Devices). Calcium-mediated changes in fluorescence were monitored every 1.52 seconds over a 60 second time period, with the FlexStation® II adding 25 μL of test compound dilutions at the 19 second time point (excitation at 485 nm, detection at 525 nm). Peak kinetic reduction (SoftMax, Molecular Devices) relative fluorescent units (RFU) were plotted against compound concentration. Data were fit to the appropriate three-parameter logistic curve to generate EC50 values (GraphPad Prism 6.0, GraphPad Software, Inc., San Diego, Calif.). 5-HT2B and 5-HT2C calcium mobilization assays were run in the same manner with stable 5-HT2B and 5-HT2C HEK293 cells except that 35,000 cells/well were used instead of 40,000 cells/well.

[1] = rhesus monkeys, chronic treatment; progressive-ratio, choice, second-order schedules; cited from earlier work
5-HT2B = molecular target: T2, 5-HT2B (Homo sapiens, UniProt P41595); experiment: 5-HT2B calcium mobilization assay in HEK293 cells (agonist activity); format: cell-based
T2 construct: expressed in transfected cells
T2 sequence (P41595 whole entry): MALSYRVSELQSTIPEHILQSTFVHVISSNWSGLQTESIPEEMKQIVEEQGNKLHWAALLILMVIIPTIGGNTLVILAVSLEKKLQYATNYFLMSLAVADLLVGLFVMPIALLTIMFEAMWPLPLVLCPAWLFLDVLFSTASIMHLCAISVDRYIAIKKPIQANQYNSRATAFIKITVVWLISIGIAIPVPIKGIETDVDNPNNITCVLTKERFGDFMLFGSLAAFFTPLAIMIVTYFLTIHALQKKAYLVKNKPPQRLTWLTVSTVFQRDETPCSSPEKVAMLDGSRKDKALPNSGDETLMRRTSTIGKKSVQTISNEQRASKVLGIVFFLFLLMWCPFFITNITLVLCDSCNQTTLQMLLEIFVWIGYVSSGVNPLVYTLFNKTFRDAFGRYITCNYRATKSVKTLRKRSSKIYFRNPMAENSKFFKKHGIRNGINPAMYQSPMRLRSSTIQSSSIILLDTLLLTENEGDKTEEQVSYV
Description: as §1, §2

human 5-HT2A receptor = molecular target: T3, human 5-HT2A receptor (Homo sapiens, UniProt P28223); experiment: 5-HT2A calcium mobilization assay in HEK293 cells (agonist activity); format: cell-based
T3 construct: expressed in transfected cells
T3 sequence (P28223 whole entry): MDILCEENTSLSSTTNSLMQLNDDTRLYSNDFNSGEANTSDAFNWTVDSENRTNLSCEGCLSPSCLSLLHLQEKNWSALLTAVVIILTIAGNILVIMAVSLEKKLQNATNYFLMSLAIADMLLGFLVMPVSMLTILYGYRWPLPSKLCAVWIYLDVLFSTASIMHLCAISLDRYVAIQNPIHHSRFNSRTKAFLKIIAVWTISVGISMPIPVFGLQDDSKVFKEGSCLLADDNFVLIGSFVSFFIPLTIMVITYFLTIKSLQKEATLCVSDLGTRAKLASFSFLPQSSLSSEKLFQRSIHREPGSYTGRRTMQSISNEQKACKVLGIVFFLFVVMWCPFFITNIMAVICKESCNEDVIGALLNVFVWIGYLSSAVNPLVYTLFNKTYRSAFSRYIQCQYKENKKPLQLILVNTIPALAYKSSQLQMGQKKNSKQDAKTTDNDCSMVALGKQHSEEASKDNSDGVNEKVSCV
Description: as §1, §2

[2] = double-blind, placebo-controlled clinical trial; cited from earlier work
[3] = rats; cited from earlier work
[4] = abstinent cocaine-dependent patients; cited from earlier work
[5] = molecular target: T4, Dopamine Transporter (DAT) (Rattus norvegicus, UniProt P23977); experiment: DAT release assay, rat brain synaptosomes; format: biochemical; details: for EC50: release of [3H]MPP+ from rat striatum synaptosomes, mean±SD (n=3)
T4 construct: Synaptosomes were prepared from rat striatum for the DAT assays; from tissue; host or cells: rat striatum synaptosomes
T4 sequence (P23977 whole entry): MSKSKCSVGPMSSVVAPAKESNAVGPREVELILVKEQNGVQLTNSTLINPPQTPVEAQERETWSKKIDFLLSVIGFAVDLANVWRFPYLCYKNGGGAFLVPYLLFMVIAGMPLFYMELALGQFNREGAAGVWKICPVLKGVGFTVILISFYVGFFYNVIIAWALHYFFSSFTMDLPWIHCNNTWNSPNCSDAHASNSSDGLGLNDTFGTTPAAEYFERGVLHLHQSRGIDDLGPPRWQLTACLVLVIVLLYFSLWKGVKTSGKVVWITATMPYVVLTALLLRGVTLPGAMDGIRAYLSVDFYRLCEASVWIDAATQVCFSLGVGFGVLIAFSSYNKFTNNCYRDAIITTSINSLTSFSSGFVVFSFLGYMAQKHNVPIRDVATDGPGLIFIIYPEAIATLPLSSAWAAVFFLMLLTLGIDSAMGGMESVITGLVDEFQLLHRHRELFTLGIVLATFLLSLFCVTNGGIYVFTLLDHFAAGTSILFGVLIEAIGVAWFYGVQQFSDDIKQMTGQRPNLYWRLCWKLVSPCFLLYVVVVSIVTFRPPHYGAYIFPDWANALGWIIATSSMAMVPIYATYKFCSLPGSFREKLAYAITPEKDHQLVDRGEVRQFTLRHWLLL
Description: as §1, with “Compounds active in both assays are releasers while compounds active only in the uptake inhibition assay are uptake inhibitors. Active compounds were then fully characterized by running 8-point concentration response curves in the assay corresponding to their mechanism of action.” left out
(§3) All animal studies were conducted in facilities fully accredited by the Association for the Assessment and Accreditation of Laboratory Animal Care (AAALAC) and experiments were performed in accordance with the Institutional Care and Use Committee (IACUC) of the National Institute on Drug Abuse Intramural Research Program (NIDA IRP). Rats were euthanized by CO2 narcosis, and brains were processed to yield synaptosomes as previously described (Rothman, R B, et al., Eur. J. Pharmacol. 2002, 447(1), 51.). Synaptosomes were prepared from rat striatum for the DAT assays, whereas synaptosomes were prepared from whole brain minus striatum and cerebellum for the NET and SERT assays.
(§4) For release assays, 9 nM [^3H]1-methyl-4-phenylpyridinium ([^3H]MPP+) was used as the radiolabeled substrate for DAT and NET, while 5 nM [^3H]5-HT was used as a substrate for SERT. All buffers used in the release assay methods contained 1 μM reserpine to block vesicular uptake of substrates. The selectivity of release assays was optimized for a single transporter by including unlabeled blockers to prevent the uptake of [^3H]MPP+ or [^3H]5-HT by competing transporters. Synaptosomes were preloaded with radiolabeled substrate in Krebs-phosphate buffer for 1 h (steady state). Release assays were initiated by adding 850 μL of preloaded synaptosomes to 150 μL of test drug. Release was terminated by vacuum filtration and retained radioactivity was quantified as described for uptake inhibition. Concentration-response curves were generated to yield EC50 values.
(§5) Substrate reversal experiments were conducted to validate substrate activity. The releasing ability of test compounds was tested at an EC80 concentration in the absence and presence of an uptake inhibitor (250 nM […] for DAT, 166 nM desipramine for NET, 100 nM fluoxetine for SERT).

[6] = system: Norepinephrine Transporter (NET); format: biochemical, rat
[7] = molecular target: Norepinephrine Transporter (NET) (Rattus norvegicus, UniProt Q9WTR4); format: biochemical; details: read-out: EC50, (nM ± SD) NET; release of [3H]MPP+ from rat brain synaptosomes; mean±SD (n=3)
[8] = molecular target: T5, Serotonin Transporter (SERT) (Rattus norvegicus, UniProt P31652); experiment: SERT release assay, rat brain synaptosomes; format: biochemical; details: for EC50: release of [3H]5-HT from rat brain synaptosomes, mean±SD (n=3)
T5 construct: synaptosomes were prepared from whole brain minus striatum and cerebellum for the NET and SERT assays; from tissue; host or cells: rat whole brain minus striatum and cerebellum, synaptosomes
T5 sequence (P31652 whole entry): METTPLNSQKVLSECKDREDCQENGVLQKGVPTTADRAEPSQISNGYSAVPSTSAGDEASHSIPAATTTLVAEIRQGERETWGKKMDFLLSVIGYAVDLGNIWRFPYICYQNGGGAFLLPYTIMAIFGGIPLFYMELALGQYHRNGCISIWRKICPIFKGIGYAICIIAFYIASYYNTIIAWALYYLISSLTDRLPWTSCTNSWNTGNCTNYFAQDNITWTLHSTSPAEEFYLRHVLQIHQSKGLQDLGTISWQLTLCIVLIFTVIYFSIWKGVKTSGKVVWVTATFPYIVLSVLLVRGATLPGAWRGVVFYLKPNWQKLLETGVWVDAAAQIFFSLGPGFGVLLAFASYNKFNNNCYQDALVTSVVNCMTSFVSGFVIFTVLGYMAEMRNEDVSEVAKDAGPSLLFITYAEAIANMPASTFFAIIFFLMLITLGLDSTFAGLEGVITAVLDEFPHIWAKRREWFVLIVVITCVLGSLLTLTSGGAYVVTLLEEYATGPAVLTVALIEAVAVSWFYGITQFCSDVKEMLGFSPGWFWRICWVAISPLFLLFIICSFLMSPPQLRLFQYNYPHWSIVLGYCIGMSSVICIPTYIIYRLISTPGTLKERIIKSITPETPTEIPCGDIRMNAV
Description: as §1, with “Compounds active in both assays are releasers while compounds active only in the uptake inhibition assay are uptake inhibitors. Active compounds were then fully characterized by running 8-point concentration response curves in the assay corresponding to their mechanism of action.” left out
as §3, §4, §5

[9] = calcium mobilization, agonist, HEK293
[10] = calcium mobilization, agonist, HEK293, read-out: 5-HT2C EC50, (nM ± SEM)
[11] = calcium mobilization, agonist, HEK293, read-out: 5-HT2B EC50, (nM ± SEM)
[12] = calcium mobilization, agonist, HEK293, read-out: 5-HT2A EC50, (nM ± SEM)

| SMILES | 5-HT2A EC50, (nM ± SEM) (human 5-HT2A receptor; [9]) | EC50 (5-HT2C; [10]) | EC50 [5] | EC50 (5-HT2B; [11]) | EC50 (human 5-HT2A receptor; [12]) | selectivity for releasing NE relative to DA (NET compared to DAT) [6] | EC50 [7] | further results |
| --- | --- | --- | --- | --- | --- | --- | --- | --- |
| CC(N)Cc1ccc2ccccc2c1 (stereo not shown) [compound 2] | – | – | – | – | – | – | – | depletion of cortical 5-HT (cortical 5-HT): do not cause depletion of cortical 5-HT |
| C[C@H](N)Cc1ccccc1 [compound 1, S(+)-amphetamine, reference compound] | inactive | – | – | – | – | – | – | EC50 (5-HT2C): > 10000 nM; 5-HT2C EC50, (nM ± SEM) (5-HT2C; [9]): inactive; cocaine self-administration compared to food-maintained responding [1]: selective dose-dependent decrease in cocaine self-administration; EC50 (5-HT2B): > 10000 nM; 5-HT2B EC50, (nM ± SEM) (5-HT2B; [9]): inactive; EC50 (human 5-HT2A receptor): > 10000 nM; cocaine use [2]: decrease in cocaine use |
| CCNC(C)Cc1cccc(C(F)(F)F)c1 (stereo not shown) [fenfluramine] | – | – | – | – | – | – | – | cue-reinstated cocaine-seeking behavior [3]: dose-dependently attenuates cue-reinstated cocaine-seeking behavior; cocaine craving [4]: significantly reduces cocaine craving |
| CC(N)/C=C\c1ccccc1 (stereo not shown) [compound 11, (2Z)-1-Methyl-3-phenyl-prop-2-enylamine] | inactive | > 10000 nM | 1110 ± 150 nM | > 10000 nM | > 10000 nM | 3.7 fold | 301 ± 76 nM | – |
| C[C@@H](N)C/C=C\c1ccccc1 [R-8, (1R,3Z)-1-Methyl-4-phenyl-but-3-enylamine] | – | > 10000 nM | 1420 nM | > 10000 nM | > 10000 nM | 6.7 fold | 211 nM | EC50 (human 5-HT2A receptor; calcium mobilization, read-out: 5-HT2A EC50): > 10000 nM; potency for releasing 5-HT relative to DA (SERT/DAT selectivity) [8]: 1.2 fold; EC50 [8]: 1160 ± 160 nM |
| CC(N)/C=C/c1ccccc1 (stereo not shown) [compound 10, (2E)-1-Methyl-3-phenyl-prop-2-enylamine] | inactive | > 10000 nM | 666 nM | > 10000 nM | > 10000 nM | 2.2 fold | 308 ± 100 nM | – |
| C[C@H](N)C/C=C/c1ccccc1 [S-6, (1S,3E)-1-Methyl-4-phenyl-but-3-enylamine] | inactive | > 10000 nM | 206 nM | > 10000 nM | > 10000 nM | – | 138 nM | 5-HT2C EC50, (nM ± SEM) (5-HT2C; [9]): inactive; potency at releasing DA compared to NE [5]: almost equal; 5-HT2B EC50, (nM ± SEM) (5-HT2B; [9]): inactive; potency for 5-HT release compared to NE release [8]: 3.5 fold; potency for releasing 5-HT relative to DA (SERT/DAT selectivity) [8]: 5 fold; EC50 [8]: 40 nM |
